Assay results published in US10357574B2, “Optical sensor conjugates for detecting reactive oxygen and/or reactive nitrogen species in vivo” (The General Hospital Corporation, priority 2010, dated 2019).

System: infarcted mouse hearts
Test: Mouse model of myocardial infarction (permanent coronary ligation), fluorescence imaging of heart sections
Type: in vivo, mice (C57/B6)
Settings: injected intravenously into the tail-vein 12-14 hours after MI, imaged 24 hours later
Procedure: To investigate the utility of the optical sensor conjugate in vivo, we determined the ability of the sensor to monitor ischemia and inflammation as a result of permanent coronary ligation in a mouse model of myocardial infarction. For all experiments, the agents (optical sensor conjugate or fluorogenic small molecule with linker) were injected intravenously into the tail-vein of the mice 12-14 hours after MI and imaged 24 hours later when neutrophil recruitment to the infarct is high.
Anesthesized mice were intubated and a thoracotomy was performed in the 4th left intercostal space to visualize the left ventricle where the left coronary artery was ligated. […]
Hearts were excised and rinsed in PBS and cut into myocardial rings of 1-mm thickness and either immediately stained with 2-3-5-triphenyl tetrazolium chloride (TTC) (Nahrendorf et al. Circulation, 113:1196-202 (2006)) to highlight the infarcted tissue or used for histological analysis. Fluorescence reflectance imaging of side-by-side myocardial rings of controls and injected hearts was performed in the GFP channel (lexc=450-480 nm with lem 500-530 nm) and Cy5 channel (lexc=620-650 nm with lem=680-710 nm) using an Olympus OV-100 system (Olympus, Center Valley, Pa.). For histology and fluorescence microscopy, the tissue was embedded in OCT medium (Sakura Finetek, Torrance, Calif.). […]

CCN(CC)c1ccc2c(c1)Oc1cc(N(CC)CC)ccc1N2C(=O)CCCC(=O)O [small molecule probe, sodium 5-(3,7-bis(diethylamino)-10H-phenoxazin-10-yl)-5-oxopentanoate]
localization of fluorescence in coronal heart sections (fluorescence reflectance imaging): washed out of the infarct and into the myocardium
